This is an account of results in US20240018123A1, “COMPOUND FOR INHIBITING OR DISINTEGRATING ANDROGEN RECEPTOR, AND PHARMACEUTICAL USE THEREOF” (KOREA RESEARCH INSTITUTE OF CHEMICAL TECHNOLOGY, priority 2020, published 2024).

One data set concerns VCaP cells. Description: Cytotoxicity assessment (Cell-titer-glo cell viability), VCaP. The note with it: read-out: VCaP (CC50); VCaP cells, 6 days of treatment, Cell-titer-glo, vs DMSO.
A further data set concerns the target T1, Androgen receptor (AR) (Homo sapiens, UniProt P10275, T878A).
T1 construct: 5.5×10^5 LNCap cells were injected into each well of a 6-well plate; endogenous in cells; host or cells: LNCaP
T1 sequence (P10275 1-920 T878A): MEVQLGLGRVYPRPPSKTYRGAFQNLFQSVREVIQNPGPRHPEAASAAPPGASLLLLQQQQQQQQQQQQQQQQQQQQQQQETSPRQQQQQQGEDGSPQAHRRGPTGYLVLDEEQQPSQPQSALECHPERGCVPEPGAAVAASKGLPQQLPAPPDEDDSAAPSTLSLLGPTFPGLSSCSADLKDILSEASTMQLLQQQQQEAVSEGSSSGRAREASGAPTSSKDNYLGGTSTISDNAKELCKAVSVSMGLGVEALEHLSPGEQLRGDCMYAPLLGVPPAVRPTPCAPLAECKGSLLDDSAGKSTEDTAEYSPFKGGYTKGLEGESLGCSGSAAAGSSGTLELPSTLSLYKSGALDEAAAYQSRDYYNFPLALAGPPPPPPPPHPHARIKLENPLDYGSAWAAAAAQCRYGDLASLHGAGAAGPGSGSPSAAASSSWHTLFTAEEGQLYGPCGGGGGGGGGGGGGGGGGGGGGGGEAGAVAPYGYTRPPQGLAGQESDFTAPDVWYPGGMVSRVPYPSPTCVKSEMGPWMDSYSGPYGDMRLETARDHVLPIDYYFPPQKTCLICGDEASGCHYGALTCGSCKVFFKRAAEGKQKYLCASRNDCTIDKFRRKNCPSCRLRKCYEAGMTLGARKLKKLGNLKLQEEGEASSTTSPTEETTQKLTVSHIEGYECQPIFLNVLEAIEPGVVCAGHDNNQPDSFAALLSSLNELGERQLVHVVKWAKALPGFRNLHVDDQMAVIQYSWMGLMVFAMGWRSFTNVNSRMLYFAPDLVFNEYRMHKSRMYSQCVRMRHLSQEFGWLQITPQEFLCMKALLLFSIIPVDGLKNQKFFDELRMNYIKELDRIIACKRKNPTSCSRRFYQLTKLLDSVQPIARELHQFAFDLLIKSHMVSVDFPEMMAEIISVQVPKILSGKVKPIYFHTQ
Description: Assessment of AR proteolytic activity (Western blotting of LNCap cell lysates). The class given is cell-based. The note with it: 24 hours of treatment, Western blotting quantified with Image J. Here is the method:
Assessment of AR Proteolytic Activity
Androgen receptor (AR) proteolytic activity of the compound according to the present invention was evaluated as follows: Specifically, 5.5×10^5 LNCap cells were injected into each well of a 6-well plate. […] After 24 hours of treatment, cells were collected and lysed using RIPA Lysis buffer (50 mM Tris-HCl, pH7.5, 150 mM NaCl, 1% Triton X-100, 2 mM EDTA, 0.1% SDS, 0.5% sodium deoxycholate and protease inhibitor cocktail) to make cell lysates. Western blotting was performed, and the results were quantified using Image J program.
On the technique in general: Immunoblotting shows a protein as a band on a membrane.

On to `CC1(C)C(NC(=O)c2ccc(-n3cc(CN4CCN(C(=O)C5CN(c6ccc7nnn(C8CCC(=O)NC8=O)c(=O)c7c6)C5)CC4)nn3)cc2)C(C)(C)C1Oc1ccc(C#N)c(Cl)c1` (stereo not shown) [Example 122, N-((1r,3r)-3-(3-chloro-4-cyanophenoxy)-2,2,4,4-tetramethylcyclobutyl)-4-(4-((4-(1-(3-(2,6-dioxopiperidin-3-yl)-4-oxo-3,4-dihydrobenzo[d][1,2,3]triazin-6-yl)azetidine-3-carbonyl)piperazin-1-yl)methyl)-1H-1,2,3-triazol-1-yl)benzamide], for which the CC50 in the data set on VCaP cells amounted to 18 nM.
`CC1(C)C(NC(=O)c2ccc(N3CCC4(CC3)CN(CC3CCN(c5ccc6c(=O)n(C7CCC(=O)NC7=O)nnc6c5)CC3)C4)nc2)C(C)(C)C1Oc1ccc(C#N)c(Cl)c1` (stereo not shown) [Example 173, N-((1r,3r)-3-(3-chloro-4-cyanophenoxy)-2,2,4,4-tetramethylcyclobutyl)-6-(2-((1-(3-(2,6-dioxopiperidin-3-yl)-4-oxo-3,4-dihydrobenzo[d][1,2,3]triazin-7-yl)piperidin-4-yl)methyl)-2,7-diazaspiro[3.5]nonan-7-yl)nicotinamide]: the “Degradation (1 μM treated in LNCaP, % AR remaining)” value on Androgen receptor (AR) is on record as 9%.
For `CC1(C)C(NC(=O)c2ccc(N3CCC(CN4CC5(CCN(c6ccc7c(=O)n(C8CCC(=O)NC8=O)nnc7c6)CC5)C4)CC3)nc2)C(C)(C)C1Oc1ccc(C#N)c(Cl)c1` (stereo not shown) [Example 169, N-((1r,3r)-3-(3-chloro-4-cyanophenoxy)-2,2,4,4-tetramethylcyclobutyl)-6-(4-((7-(3-(2,6-dioxopiperidin-3-yl)-4-oxo-3,4-dihydrobenzo[d][1,2,3]triazin-7-yl)-2,7-diazaspiro[3.5]nonan-2-yl)methyl)piperidin-1-yl)nicotinamide], the “Degradation (1 μM treated in LNCaP, % AR remaining)” value on Androgen receptor (AR) was 16%.
In the case of `CC1(C)C(NC(=O)c2ccc(C#CCN3CCC4(CC3)CN(c3ccc5c(=O)n(C6CCC(=O)NC6=O)nnc5c3)C4)nc2)C(C)(C)C1Oc1ccc(C#N)c(Cl)c1` (stereo not shown) [Example 181, N-((1r,3r)-3-(3-chloro-4-cyanophenoxy)-2,2,4,4-tetramethylcyclobutyl)-6-(3-(2-(3-(2,6-dioxopiperidin-3-yl)-4-oxo-3,4-dihydrobenzo[d][1,2,3]triazin-7-yl)-2,7-diazaspiro[3.5]nonan-7-yl)prop-1-yn-1-yl)nicotinamide], the “Degradation (1 μM treated in LNCaP, % AR remaining)” value at Androgen receptor (AR) stood at 18%.
With `CC1(C)C(NC(=O)c2ccc(C#CCN3CCC4(CC3)CN(c3ccc5nnn(C6CCC(=O)NC6=O)c(=O)c5c3)C4)nc2)C(C)(C)C1Oc1ccc(C#N)c(Cl)c1` (stereo not shown) [Example 182, N-((1r,3r)-3-(3-chloro-4-cyanophenoxy)-2,2,4,4-tetramethylcyclobutyl)-6-(3-(2-(3-(2,6-dioxopiperidin-3-yl)-4-oxo-3,4-dihydrobenzo[d][1,2,3]triazin-6-yl)-2,7-diazaspiro[3.5]nonan-7-yl)prop-1-yn-1-yl)nicotinamide], the “Degradation (1 μM treated in LNCaP, % AR remaining)” value on Androgen receptor (AR) worked out at 16%.
Consider `CC1(C)C(NC(=O)c2ccc(N3CC[C@@H](CN4CC5(CCN(c6ccc7nnn(C8CCC(=O)NC8=O)c(=O)c7c6)CC5)C4)C3)nc2)C(C)(C)C1Oc1ccc(C#N)c(Cl)c1` (stereo partly drawn) [Example 188, N-((1r,3S)-3-(3-chloro-4-cyanophenoxy)-2,2,4,4-tetramethylcyclobutyl)-6-((3S)-3-((7-(3-(2,6-dioxopiperidin-3-yl)-4-oxo-3,4-dihydrobenzo[d][1,2,3]triazin-6-yl)-2,7-diazaspiro[3.5]nonan-2-yl)methyl)pyrrolidin-1-yl)nicotinamide], for which, on Androgen receptor (AR), the “Degradation (1 μM treated in LNCaP, % AR remaining)” value was 21%.
On the same count and under the same terms, the same measure for `CC1(C)C(NC(=O)c2ccc(N3CCC(CN4CCN(c5ccc6c(=O)n(C7CCC(=O)NC7=O)nnc6c5)CC4)CC3)cc2)C(C)(C)C1Oc1ccc(C#N)c(Cl)c1` (stereo not shown) [Example 165, N-((1r,3r)-3-(3-chloro-4-cyanophenoxy)-2,2,4,4-tetramethylcyclobutyl)-4-(4-((4-(3-(2,6-dioxopiperidin-3-yl)-4-oxo-3,4-dihydrobenzo[d][1,2,3]triazin-7-yl)piperazin-1-yl)methyl)piperidin-1-yl)benzamide]: 8%; for `CC1(C)C(NC(=O)c2ccc(N3CC[C@H](CN4CCN(C5CCN(c6ccc7nnn(C8CCC(=O)NC8=O)c(=O)c7c6)CC5)CC4)C3)nc2)C(C)(C)C1Oc1ccc(C#N)c(Cl)c1` (stereo partly drawn) [Example 192, N-((1r,3R)-3-(3-chloro-4-cyanophenoxy)-2,2,4,4-tetramethylcyclobutyl)-6-((3R)-3-((4-(1-(3-(2,6-dioxopiperidin-3-yl)-4-oxo-3,4-dihydrobenzo[d][1,2,3]triazin-6-yl)piperidin-4-yl)piperazin-1-yl)methyl)pyrrolidin-1-yl)nicotinamide]: 22%.
“N-((1r,3r)-3-(3-chloro-4-cyanophenoxy)-2,2,4,4-tetramethylcyclobutyl)-4-(4-(1-(3-(2,6-dioxopiperidin-3-yl)-4-oxo-3,4-dihydrobenzo[d][1,2,3]triazin-6-yl)azetidine-3-carbonyl)piperazin-1-yl)benzamide [Example 44]”: the “Degradation (1 μM treated in LNCaP, % AR remaining)” value at Androgen receptor (AR) was found to be 3.7%.
Take `CC1(C)C(NC(=O)c2ccc(C#CCN3CC4(CCN(c5ccc6nnn(C7CCC(=O)NC7=O)c(=O)c6c5)CC4)C3)nc2)C(C)(C)C1Oc1ccc(C#N)c(Cl)c1` (stereo not shown) [Example 180, N-((1r,3r)-3-(3-chloro-4-cyanophenoxy)-2,2,4,4-tetramethylcyclobutyl)-6-(3-(7-(3-(2,6-dioxopiperidin-3-yl)-4-oxo-3,4-dihydrobenzo[d][1,2,3]triazin-6-yl)-2,7-diazaspiro[3.5]nonan-2-yl)prop-1-yn-1-yl)nicotinamide]: the “Degradation (1 μM treated in LNCaP, % AR remaining)” value on Androgen receptor (AR) was determined as 18%.
Consider `N#Cc1ccc(OC2CCC(NC(=O)c3ccc(N4CCC(CN5CCN(c6ccc7nnn(C8CCC(=O)NC8=O)c(=O)c7c6)CC5)CC4)nc3)CC2)cc1Cl` (stereo not shown) [Example 160, N-((1r,4r)-4-(3-chloro-4-cyanophenoxy)cyclohexyl)-6-(4-((4-(3-(2,6-dioxopiperidin-3-yl)-4-oxo-3,4-dihydrobenzo[d][1,2,3]triazin-6-yl)piperazin-1-yl)methyl)piperidin-1-yl)nicotinamide], for which, on Androgen receptor (AR), the “Degradation (1 μM treated in LNCaP, % AR remaining)” value is listed as 31%.
Take `CC1(C)C(NC(=O)c2ccc(N3CCC4(CC3)CN(CC3CN(c5ccc6nnn(C7CCC(=O)NC7=O)c(=O)c6c5)C3)C4)nc2)C(C)(C)C1Oc1ccc(C#N)c(Cl)c1` (stereo not shown) [Example 176, N-((1r,3r)-3-(3-chloro-4-cyanophenoxy)-2,2,4,4-tetramethylcyclobutyl)-6-(2-((1-(3-(2,6-dioxopiperidin-3-yl)-4-oxo-3,4-dihydrobenzo[d][1,2,3]triazin-6-yl)azetidin-3-yl)methyl)-2,7-diazaspiro[3.5]nonan-7-yl)nicotinamide]: the “Degradation (1 μM treated in LNCaP, % AR remaining)” value on Androgen receptor (AR) stood at 6%.
Same read-out and setting: under `CC1(C)C(NC(=O)c2ccc(N3CCC(CN4CCN(C5CCN(c6ccc7nnn(C8CCC(=O)NC8=O)c(=O)c7c6)CC5)CC4)CC3)nc2)C(C)(C)C1Oc1ccc(C#N)c(Cl)c1` (stereo not shown) [Example 194, N-((1r,3r)-3-(3-chloro-4-cyanophenoxy)-2,2,4,4-tetramethylcyclobutyl)-6-(4-((4-(1-(3-(2,6-dioxopiperidin-3-yl)-4-oxo-3,4-dihydrobenzo[d][1,2,3]triazin-6-yl)piperidin-4-yl)piperazin-1-yl)methyl)piperidin-1-yl)nicotinamide] stands 9%.

For orientation: CC50 means the concentration at which the toxic effect on the cells reaches its halfway point.
